Reference: patent US20030138533A1, “Food and beverage perservative” (Nutraceutical Clinical Laboratories International, Inc., priority 2002, published 2003)

Tested on: mold
Experiment: Mold growth in white pan bread during storage (shelf-life test)
Settings: white pan bread mix; test preservative about 3.5% of total mix weight, control 0.27% calcium propionate; same packaging and storage; 90 day test period
Description: The test sample preservative composition as shown in Table 1 was added to white pan bread mix in the final minute of mixing after yeast and salt had been blended into the mixture. The preservative composition comprised about 3.5% of the total weight of the mix. A control sample containing 0.27% calcium propionate was added to another identical sample of white pan bread mix. The control sample molded in 12 days. The test sample remained free of any sign of mold growth during a 90 day test period. Both the test sample and the control sample were packaged and stored in the same conditions throughout the test period.

In the case of CCC(=O)[O-].CCC(=O)[O-].[Ca+2] [calcium propionate], the “time without mold growth (time until the bread sample molded)” value is reported as 12 days.
